Results on 2 compounds are retold here after patent US11649239B2, “Crystal form a of (5-amino-8-(2-methyl-6-(trifluoromethyl)pyridin-4-yl)-7-phenyl-[1,2,4]triazolo[1,5-c]pyrimidin-2-yl)methanol (compound 1)” (Medshine Discovery Inc., priority 2018, dated 2023).

Series [1] addresses T1, human adenosine A2a receptor (Homo sapiens, UniProt P29274).
T1 construct: host or cells: CHO cells
Put plainly: Calcium flux assay of the human adenosine A2a receptor (FLIPR, CHO cells stably expressing A2a, agonist NECA). In kind it is cell-based. The following applies: conclusion on Table 3. The protocol: Calcium Flux Assay of the Human Adenosine A2a Receptor
The cell line stably expressing A2a was constructed by Shanghai WuXi AppTec, and the host cells were CHO cells.
Fluo-4 Direct kit (Invitrogen, Cat. No. F10471). The fluorescence detection reagent in the kit (which can specifically bind to calcium ions and cause an increase in the fluorescence signal) was incubated with the cells for an appropriate period of time, and the compounds were added to stimulate the cells to cause changes in the intracellular calcium flux, thereby causing changes in the fluorescence signal, which can reflect the strength of the agonistic or inhibitory activity of the compounds. […]
FLIPR instrument software was run. According to the set program, 10 μl of the compound dilution buffer was added to the cell plate, and the fluorescence signal was read. Then 10 μl of a predetermined concentration of the agonist as a reference compound was added to the cell plate, and the fluorescence signal was read. After the reading, data was exported through the “Max-Min” and “Read 90 to Maximum allowed” methods in the software. EC80 of the A2A cell line was calculated, and the agonist with a concentration of 6×EC80 was prepared. […]
FLIPR instrument software was run. […] Again, 10 μl of the agonist as a reference compound with a concentration of 6×EC80 was added to the cell plate, and the fluorescence signal was read. […]
In general terms: Calcium assays in cells follow changes in intracellular calcium, usually with a dye or a luminescent sensor.

Series [2] in a line: Pharmacokinetics in female Balb/c mice after intravenous injection and oral administration. In kind it is in vivo. The protocol:
Object of the assay: to test the pharmacokinetics of the compound in female Balb/c mice in vivo
Balb/c mice (female, 15 to 30 g, 7 to 9 weeks old, from Shanghai Lingchang Biotechnology Company)
The pharmacokinetic profile of the compound after intravenous injection and oral administration in the rodents was tested by the standard protocol. In the assay, the candidate compound was prepared into a clear solution to be administered to the mice through a single intravenous injection and prepared into a homogeneous suspension to be administered to the mice through a single oral administration. The vehicle for the intravenous injection was 5% DMSO/95% 10% Cremophor EL, and the vehicle for the oral administration was 1% Tween 80, 9% PEG400, and 90% water. The whole blood sample was collected within 24 hours, and centrifuged at 3000 g at 4° C. for 15 minutes. The supernatant was separated to give the plasma sample, and 20 times volume of acetonitrile solution containing an internal standard was added to precipitate the proteins. […] The supernatant was taken out, and injected as a sample to quantitatively analyze the plasma drug concentration by LC-MS/MS analysis method. The pharmacokinetic parameters were calculated, such as peak concentration, peak time, clearance rate, half-life, area under the drug-time curve, bioavailability, etc.

Series [3] concerns CT26 cells. Put plainly: Pharmacodynamics in vivo in CT-26 model (subcutaneous CT26 tumor in BALB/c nude mice). Conditions: anti-PD-1 5 mg/Kg QW; for Volume of tumor: crystal form A 50 mg/Kg BID oral. The text has this:
Assay Example 4: Study of Pharmacodynamics of Crystal Form a of Compound 1 In Vivo in CT-26 Model
BALB/c nude mice (female, 7 weeks old, and weighing about 16 to 20 g) were kept in a breeding environment of SPF-class animal room, and in single ventilated cages (5 mice per cage). Bedding and water in all cages were disinfected before use. All the animals had free access to the standard certified commercial laboratory diet. A total of 80 mice were purchased from Shanghai Slack Laboratory Animal Co., Ltd. Anti-PD-1 antibody was purchased from BioXcell with the clone of RMP-14 and the product number of BP0146. 0.1 mL of 3×10^5 CT26 cells were subcutaneously inoculated in the right back of each mouse, and the mice were randomly divided into groups for administration.
CT26 cells were subcutaneously inoculated in the right back of each BALB/c nude mouse to test pharmacodynamics in vivo. In the assay, the test compound was administered orally every day for 22 consecutive days, and the anti-PD-1 antibody was administered once per week for three consecutive weeks. The volume of the tumor was measured twice a week with a two-dimensional caliper, and the volume was measured in cubic millimeter, which was calculated by the following formula: V=0.5 a×b^2, wherein a and b were the long and short diameters of the tumor, respectively. The anti-tumor efficacy was determined by dividing the average volume increase of the tumors of animals treated with the compound by the average volume increase of the tumors of the untreated animals. (BID means twice a day)

The nature of series [4]: Determination of solubility of crystal form A of compound 1 in single or mixed solvents. The class given is physicochemical. The following applies: for solubility: organic solvent or mixture, thermodynamic from solid. The protocol:
Assay Example 1: Determination of Solubility of Crystal Form A of Compound 1
Multiple portions of about 2.0 mg of crystal form A of compound 1 were weighed in parallel and placed in glass vials. Various single solvents or mixed solvents listed in Table 2 were gradually added in small amount, and shaken constantly, while the dissolution of the compound was observed. The solubility of the compound was calculated based on the weight of the weighed compound and the volume of the correspondingly added solvent.

≈ marks a conversion by molar mass, not a printed value. Entries after “also recorded” stand apart in the source; their conditions may differ. Where only a bound is given, the exact number is not on record here.

T1 sequence (P29274 whole entry): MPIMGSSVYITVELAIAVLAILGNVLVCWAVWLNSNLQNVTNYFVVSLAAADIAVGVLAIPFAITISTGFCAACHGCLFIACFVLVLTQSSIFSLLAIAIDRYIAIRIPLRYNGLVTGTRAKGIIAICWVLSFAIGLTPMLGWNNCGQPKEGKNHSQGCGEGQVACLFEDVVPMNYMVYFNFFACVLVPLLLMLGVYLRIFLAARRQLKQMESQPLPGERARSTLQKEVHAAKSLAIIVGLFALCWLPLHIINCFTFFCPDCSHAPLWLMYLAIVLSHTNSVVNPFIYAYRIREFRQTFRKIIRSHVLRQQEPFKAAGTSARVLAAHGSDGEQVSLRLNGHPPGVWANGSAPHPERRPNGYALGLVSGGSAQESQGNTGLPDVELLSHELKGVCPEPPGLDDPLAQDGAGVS

Regarding `Cc1cc(-c2c(-c3ccccc3)nc(N)n3nc(CO)nc23)cc(C(F)(F)F)n1` [Compound 1, (5-amino-8-(2-methyl-6-(trifluoromethyl)pyridin-4-yl)-7-phenyl-[1,2,4]triazolo[1,5-c]pyrimidin-2-yl)methanol], the “Antagonistic activity against the adenosine A2a receptor (in words)” value in series [1] is listed as “excellent antagonistic activity”. For the same compound, the “Pharmacokinetic index in mice (in words)” value in series [2] (conclusion on Table 4) is reported as “excellent pharmacokinetic index”. Also, the clearance in series [2] (mouse, plasma, female Balb/c mice, single intravenous injection, read-out: Clearance rate) was determined as 18 mL/min/kg.
The solubility is how much of the substance goes into solution per volume. Consider `Cc1cc(-c2c(-c3ccccc3)nc(N)n3nc(CO)nc23)cc(C(F)(F)F)n1` [Crystal form A of compound 1, (5-amino-8-(2-methyl-6-(trifluoromethyl)pyridin-4-yl)-7-phenyl-[1,2,4]triazolo[1,5-c]pyrimidin-2-yl)methanol], for which, in series [3] (CT-26 mouse model, crystal form A 50 mg/Kg BID), the “Anti-tumor effect (in words)” value is “has an anti-tumor effect; also recorded: significant inhibitory effect on the tumor”. The Volume of tumor in series [3] (Day 10) is 47 mm^3; in series [3] (Day 13), 127 mm^3; in series [3] (Day 15), 204 mm^3; in series [3] (Day 18), 312 mm^3; in series [3] (Day 20) it was 409 mm^3; in series [3] (Day 22), 538 mm^3. In series [4] (conclusion on Table 2), the “Solubility in the solvents of Table 2 (in words)” value is listed as “good solubility”. The solubility is 35 to 52.5 mg/mL (≈ 87.4 to 131 mM) in series [4] (solvent 1,4-Dioxane); 33.3 to 50 mg/mL (≈ 83.2 to 125 mM) in series [4] (solvent Acetone); 12.2 to 13.8 mg/mL (≈ 30.5 to 34.5 mM) in series [4] (solvent Acetonitrile); 26.3 to 35 mg/mL (≈ 65.7 to 87.4 mM) in series [4] (solvent Acetonitrile:Water (2:1)); 28.8 to 38.3 mg/mL (≈ 71.9 to 95.7 mM) in series [4] (solvent Ethanol); 25 to 50 mg/mL (≈ 62.4 to 125 mM) in series [4] (solvent Ethanol:Water (3:1)). The solubility in series [4] (solvent Ethyl acetate) was 12.5 to 16.7 mg/mL (≈ 31.2 to 41.7 mM); in series [4] (solvent Isopropanol) it was 14.4 to 16.4 mg/mL (≈ 36 to 41 mM); in series [4] (solvent Methanol), 47.5 to 95 mg/mL (≈ 119 to 237 mM); in series [4] (solvent Methyl ethyl ketone), 36.7 to 55 mg/mL (≈ 91.7 to 137 mM); in series [4] (solvent N-butanol) it was 15.7 to 18.3 mg/mL (≈ 39.2 to 45.7 mM); in series [4] (solvent Tetrahydrofuran), more than 105 mg/mL.
